# Where “and” joins values, the source holds several entries; their conditions need not be identical. Equal values may be shown once.
# Target: T1, Alpha-2C adrenergic receptor (Rattus norvegicus, UniProt P22086)
# T1 sequence (P22086 whole entry): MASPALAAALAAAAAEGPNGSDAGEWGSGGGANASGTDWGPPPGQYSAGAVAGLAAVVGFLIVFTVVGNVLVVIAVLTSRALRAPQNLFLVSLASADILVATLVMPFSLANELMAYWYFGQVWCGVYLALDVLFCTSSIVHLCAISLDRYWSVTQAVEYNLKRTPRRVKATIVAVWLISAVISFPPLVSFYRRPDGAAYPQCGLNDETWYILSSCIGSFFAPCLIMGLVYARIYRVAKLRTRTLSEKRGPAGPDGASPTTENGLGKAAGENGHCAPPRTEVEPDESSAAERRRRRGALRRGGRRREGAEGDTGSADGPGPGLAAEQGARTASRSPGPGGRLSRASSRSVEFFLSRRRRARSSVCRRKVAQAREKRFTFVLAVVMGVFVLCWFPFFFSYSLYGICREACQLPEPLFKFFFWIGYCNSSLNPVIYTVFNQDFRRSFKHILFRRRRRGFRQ
row,Structure (SMILES),Ki
1,CC(C)(C)[C@]1(O)CCN2C[C@H]3c4ccccc4CCc4cccc(c43)[C@@H]2C1,220 nM and 107 nM
2,COc1ccc(OC)c(C(O)C(C)N)c1 (stereo not given),> 10000 nM
3,NCCc1ccc(O)c(O)c1,> 10000 nM and 9990 nM
4,"O=C(c1ccc(F)cc1)C1CCN(CCn2c(=O)[nH]c3ccccc3c2=O)CC1 [3-(2-{4-[(4-fluorophenyl)carbonyl]piperidin-1-yl}ethyl)-1,2,3,4-tetrahydroquinazoline-2,4-dione]",2210 nM and 441 nM
5,"CN1Cc2c(N)cccc2[C@H](c2ccccc2)C1 [(+/-)-2-Methyl-4-phenyl-1,2,3,4-tetrahydro-isoquinolin-8-ylamine]",8500 nM and 4990 nM
6,C=CCN1CCc2nc(N)sc2CC1 [B-HT 920],152 nM and 62.2 nM
7,NC(N)=NN=Cc1c(Cl)cccc1Cl [Guanabenz],5.8 nM and 36.7 nM
8,CCN1CCCC1CNC(=O)c1cc(S(N)(=O)=O)ccc1OC (stereo not given) [N-[(1-ethylpyrrolidin-2-yl)methyl]-2-methoxy-5-sulfamoylbenzamide],6120 nM and 682 nM
9,NCCc1c[nH]c2ccc(O)cc12 [[3H]-5-HT],> 10000 nM
10,C[C@H](N)Cc1ccccc1 [beta-aminopropylbenzene],992 nM and 2410 nM

# — BindingDB's records for PubMed 2885406 (University of California, 1987)
